We go through three compounds from PMC11364104, “Discovery of SARS-CoV-2 papain-like protease (PL^pro) inhibitors with efficacy in a murine infection model” (Science Advances, 2024).

One series deals with SARS-CoV-2. In words: microbe, parasite or virus in culture. The class given is cell-based.
A short description of series [1]: RRCK passive permeability. The note with it: dog, MDCK.
Series [2] in a line: Metabolic stability in cryopreserved human hepatocytes.
Series [3] can be described thus: in vitro. The note with it: human, hepatocytes.
A short description of series [4]: in vitro. The note with it: dog, MDCK.
In a further series the target is SARS-CoV-2 PL^pro (Severe acute respiratory syndrome coronavirus 2, UniProt P0DTD1). Kind of series: PLpro enzymatic assay (Z-RLRGG-AMC substrate cleavage). The class given is biochemical. The note with it: geometric mean of at least three replicates.
Setting [5] is: Severe acute respiratory syndrome coronavirus 2, Vero C1008, read-out: SARS-CoV-2 Vero E6 EC50 (nM)*.

Each structure is given as a SMILES string. Where two headings read alike, the source gives them in different places.

With `Cc1ccc(N2CCN(C)CC2)cc1C(=O)N[C@H](C)c1cc(-c2cnn(C)c2)nc2ccccc12` [Compound 3], in the series with SARS-CoV-2 (setting [5]), the EC50 – broadly, the concentration needed to bring the measured effect to its halfway point – stood at 652 nM. For the same compound, the apparent permeability (Papp) – broadly, a coefficient for how fast a substance crosses the barrier – in series [1] was 41.9 ×10⁻⁶ cm/s. For the same compound, in series [2], the intrinsic metabolic clearance (hepatocyte CLint) (usually the rate of metabolic loss divided by the concentration) came to 12.8 µL/min/1e6 cells.

On to `Cc1ccc(N)cc1C(=O)N[C@H](C)c1cccc2ccccc12` [Compound 1], for which the EC50 in the series on SARS-CoV-2 (Severe acute respiratory syndrome coronavirus 2, Vero C1008, read-out: EC50, cytopathic effect (CPE)) was determined as 68200 nM. In the series “in vitro [3]”, this compound yielded an intrinsic clearance (hepatocyte CLint) of 20.9 µL/min/1e6 cells. Moreover, in the series “in vitro [4]”, the apparent permeability coefficient (Papp) is 45.6 ×10⁻⁶ cm/s.

On to `Cc1ccccc1C(=O)N[C@H](C)c1cc(-c2cnn(C)c2)nc2ccccc12` [Compound 2], for which the Ki (usually a measure of affinity in units of concentration, obtained from inhibition or displacement) on SARS-CoV-2 PL^pro stood at 116 nM. Besides, the EC50 in the series with SARS-CoV-2 (setting [5]) came to 1580 nM. Besides, the apparent permeability coefficient (Papp) in series [1] worked out at 42 ×10⁻⁶ cm/s. The same compound showed an intrinsic metabolic clearance (hepatocyte CLint) in series [2] of 13.9 µL/min/1e6 cells.
